Assay results taken from patent publication US20130189727A1, “Methods And Compositions For Cellular Imaging And Cancer Cell Detection Using Light Harvesting Conjugated Polymer-Biomolecular Conjugates” (NATIONAL UNIVERSITY OF SINGAPORE, priority 2010, published 2013).
Like-named read-outs stand apart in the source and are kept apart here. {NH2} = amino group (5'-NH2) on the aptamer

Assays:
[1] = biological target: T1, lysozyme (Gallus gallus, UniProt P00698); details: in solution; read-out: Kd measured in solution; cited from earlier work
T1 construct: Hen egg white lysozyme, BSA, and human trypsin were ordered from Sigma-Aldrich; purchased Sigma-Aldrich; host or cells: hen egg white

[2] = biological target: T1, lysozyme; experiment: Aptamer/lysozyme binding affinity (Kd); parameters: species or system Hen
Description: The LOD is estimated to be 0.36 μg/mL (2.4 pmol, based on 3σ from six independent measurements) using a standard fluorometer, which is more sensitive to aptamer-based electrochemical and fluorescent arrays and is similar to that obtained from a standard of ELISA. (See Vidal, M. L., et al., Agric. Food Chem. 2005, 53, 2379-2385, the entire teachings of which are incorporated herein by reference). However, the strategy of using Apt-NP as a platform for lysozyme detection reduces the bonding affinity (Kd) of the aptamer to its target. […] (See, for example, Cox, J. C.; Ellington, A. D., Bioorg. Med. Chem. 2001, 9, 2525-2531, the entire teachings are incorporated herein by reference). The large Kd on the NP surface is detrimental to assay sensitivity, could be the result of: (1) the steric hindrance induced by the folded aptamer upon binding to lysozyme which prevents the adjacent aptamers from folding into G-quartet structure; (2) the binding of lysozyme on the Apt-NP surface hampers subsequent aptamer/lysozyme binding due to electrostatic repulsion.

[3] = Photostability in stained cells under continuous laser scanning (CLSM); format: physicochemical; details: excitation at 405 nm; MCF-7 cells
Description: FIG. 2 is time-resolved confocal laser scanning microscopy (CLSM) fluorescence images of SKBR-3 breast cancer cells stained by affibody-attached P2 under laser scanning for (a) 0 min and (b) 15 minutes.
FIG. 8 is confocal image of Hela cells under continuous excitation (λmax=488 nm) after 0 min (A) and 15 min (B) and the fluorescence/transmission overlapped images of the corresponding cells (C, D) taken after incubation with P3-phalloidin for 2 h at 0.5 μM.
I0 is the initial fluorescence intensity of the sample […].
Targeted fluorescence imaging of HER2-positive cancer cells using a P2-affibody conjugate was investigated. […]
To explore the potential of the CPE-g-PEG molecular brush in long-term clinical applications, the photostability and cytotoxicity of P4.1 were investigated. Changes in the CLSM images of P4.1-stained MCF-7 cells under continuous laser scanning were monitored to evaluate the photostability of P4.1 in cells. […] In comparison, most commercial dyes (such as fluorescein, rhodamine and Cy5) usually lose their fluorescence within 3 minutes under CLSM laser illumination. […]
The uptake of HCPEPEI-1/DNA and HCPEPEI-2/DNA polyplexes by COS-7 cells was monitored using confocal lasing scanning microscopy (CLSM). […] The dual modal HCPEPEIs fluorescent gene vectors could facilitate in tracking the delivery of genes due to the intrinsic fluorescence from the HCPE core. […]

T1 sequence (P00698 19-147): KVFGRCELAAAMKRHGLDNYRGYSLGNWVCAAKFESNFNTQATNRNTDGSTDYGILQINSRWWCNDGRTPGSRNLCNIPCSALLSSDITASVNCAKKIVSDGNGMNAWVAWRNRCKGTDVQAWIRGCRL

For “5′-NH2-ATCTACGAATTCATCAGGGCTAAAGAGTGCAGAGTTACTTAG (ATCTACGAATTCATCAGGGCTAAAGAGTGCAGAGTTACTTAG; 5' {NH2}, sugars by position and backbone not given here) [aptamer]”, the Kd [1] is listed as 31 nM, the “apparent Kd” value ([2]; aptamer on silica NP surface, lysozyme concentration at half-maximum signal) is listed as “approximately 9 μg/mL” and the Kd ([2]; aptamer on silica NP surface, lysozyme concentration at half-maximum signal, read-out: apparent Kd) is listed as roughly 625 nM. For the same compound, the “Kd on NP surface relative to Kd in solution” value ([2]; larger) was 20 fold.

With `O=C1OC2(c3ccc(O)cc3Oc3cc(O)ccc32)c2ccc(N=C=S)cc21` [FITC] the “decrease of fluorescence intensity after continuous excitation” value [3] was roughly 56%.

For “Poly[9,9-bis(2-(2-(2-methoxyethoxy)ethoxy)ethyl)fluorenevinylene-alt-9,9-bis(4-sulfonatobutyl)fluorenevinylene Sodium Salt] [PFVSO3]”, the water solubility was “approximately 20 mg/mL”.
